# Results as given in publication PMC7413516, “Antidepressant-like activity and safety profile evaluation of 1H-imidazo[2,1-f]purine-2,4(3H,8H)-dione derivatives as 5-HT1A receptor partial agonists” (PLoS ONE, 2020).
# Several values for one entry are separate records, joined by “and”; a condition that tells them apart may be missing. Equal entries are not always repeated.
# How the values were obtained:
# [1] = Plasma glucose, triglyceride and cholesterol levels after repeated administration; type: in vivo, Swiss albino mice; conditions: mice, AZ-853 0.625, AZ-861 1.25 mg/kg b.w./day
# Method: (§1) The Swiss albino mice were used in the experiment. AZ-853 and AZ-861 were injected once daily for 16 consecutive days. On the 1st and 15th day the administration of the compounds, 18-h spontaneous animal activity was registered (see below). FST, as described earlier, was performed on the 14th day just before the next treatment. To ensure that the effects observed in FST are not the result of increased motility of animals, on the 13th day, just before the next administration, the locomotor activity was measured as described earlier, from 2 to 6 min after test start, i.e. in the period identical to the duration of FST. Blood and organ collection was performed on the 17th day at 24 h after the last dose and fasting.
# Blood samples were collected from the Swiss albino mice 24 h after the last administration of the tested compounds or vehicle. To determine glucose, cholesterol and triglyceride levels in the plasma, standard enzymatic spectrophotometric tests (Biomaxima S.A. Lublin, Poland) were used. In the presence of appropriate enzyme, the substrate was converted to a colored compound. Absorbance was measured at a wavelength of 500 nm. To determine alanine aminotransferase (ALAT) or γ-glutamyl transpeptidase (γ-GTP) activities in the plasma, the standard enzymatic spectrophotometric test (Biomaxima S.A.) was used. Absorbance was measured at 340 nm (ALAT) or 405 nm (γ-GTP).
# [2] = Body weight measurement in the 17-day experiment; type: in vivo, Swiss albino mice; conditions: for body weight Mean / body weight: mouse, 0.625 mg/kg
# Method: as §1
# The body weight was measured daily immediately prior to administration of the drugs. On the 17th day, the blood was collected from the Swiss albino mice sacrificed by decapitation 20 min after i.p. administration of heparin (2500 units/mouse) and then centrifuged at 600 × g (15 min, 4°C) to separate plasma. The liver, heart, and kidney were also collected and weighed.
# [3] = target: T1, muscarinic M3 receptor (M3R) (Cavia porcellus, UniProt H0W1Z3); experiment: Smooth muscle relaxant assay: carbachol-induced contraction of isolated guinea pig ileum; conditions: isolated guinea pig small intestine, carbachol 100 μM
# T1 construct: from tissue; host or cells: isolated guinea pig ileum
# Method: (§2) The experiment was carried out according to the method described previously. Male guinea pigs were sacrificed by cervical dislocation. The ileum was rapidly removed, rinsed, and cut into segments of 1.5–2.0 cm length. The tissues were mounted on a jacketed 20 mL organ bath (Tissue Organ Bath System; 750 TOBS, DMT, Denmark) filled with Krebs’s solution (NaCl 120 mM, KCl 5.6 mM, MgCl2 2.2 mM, CaCl2 2.4 mM, NaHCO3 19 mM, glucose 10 mM). The bath was aerated with 95 % O2/5 % CO2 and heated at 37°C. During the 60-min incubation period, the organ was rinsed 4 times with fresh Krebs’s buffer, and the tissues were also pre-stimulated by 60 mM KCl solution. The submaximal contraction induced by histamine (Sigma Aldrich) (2 μM) and carbachol (Sigma Aldrich) (100 μM) was evaluated in the presence and absence of the tested compounds. Amplitudes of contraction values were measured in 4 independent experiments.
# [4] = target: T2, histaminic H1 receptor (H1R) (Cavia porcellus, UniProt P31389); experiment: Smooth muscle relaxant assay: histamine-induced contraction of isolated guinea pig ileum; conditions: isolated guinea pig small intestine, histamine 2 μM
# T2 construct: from tissue; host or cells: isolated guinea pig ileum
# Method: as §2
# [5] = tested on: mice; experiment: Forced swim test (FST) in mice; type: in vivo, Swiss albino mice; conditions: for reduction of immobility time in FST: acute, 60 min before test
# Description: The investigated compounds AZ-853 (8-(4-(4-(2-fluorophenyl)piperazin-1-yl)butyl)-1,3-dimethyl-1H-imidazo[2,1-f]purine-2,4(3H,8H)-dione and AZ-861 (1,3-dimethyl-8-(4-(4-(3-(trifluoromethyl)phenyl)piperazin-1-yl)butyl)-1H-imidazo[2,1-f]purine-2,4(3H,8H)-dione) were synthesised in the Department of Medicinal Chemistry, Faculty of Pharmacy, Jagiellonian University, and their synthesis was described earlier. AZ-853 and AZ-861 were suspended in 1% aqueous solution of Tween 80, and WAY-100635 (Sigma, Germany) was dissolved in 0.9% saline. In acute experiments, the selected compounds AZ-853 (0.156–2.5 mg/kg) and AZ-861 (0.625–2.5 mg/kg) were injected i.p. once 60 min before tests, whereas WAY-100635 (0.3 mg/kg) was administered subcutaneously (s.c.) 45 min before the test. […] In chronic experiments, AZ-853 and AZ-861 were administered i.p. once a day (between 9:00 AM and 10:00 AM) for 16 consecutive days at the minimum active doses selected from FST experiment, i.e. 0.625 and 1.25 mg/kg, respectively. All compounds were administered to mice at a volume of 10 ml/kg and to rats at a volume of 2 ml/kg. The control groups received 1% aqueous solution of Tween 80.
# The experiment was carried out according to the method of Porsolt et al.. Swiss albino mice were individually placed in a glass cylinder (25 cm high; 10 cm in diameter) containing 10 cm of water maintained at 23–25°C, and were left there for 6 min. The total duration of immobility was recorded during the last 4 min of a 6-min. A mouse was regarded as immobile when it remained floating on the water, making only small movements to keep its head above it.
# as §1
# T2 sequence (P31389 whole entry): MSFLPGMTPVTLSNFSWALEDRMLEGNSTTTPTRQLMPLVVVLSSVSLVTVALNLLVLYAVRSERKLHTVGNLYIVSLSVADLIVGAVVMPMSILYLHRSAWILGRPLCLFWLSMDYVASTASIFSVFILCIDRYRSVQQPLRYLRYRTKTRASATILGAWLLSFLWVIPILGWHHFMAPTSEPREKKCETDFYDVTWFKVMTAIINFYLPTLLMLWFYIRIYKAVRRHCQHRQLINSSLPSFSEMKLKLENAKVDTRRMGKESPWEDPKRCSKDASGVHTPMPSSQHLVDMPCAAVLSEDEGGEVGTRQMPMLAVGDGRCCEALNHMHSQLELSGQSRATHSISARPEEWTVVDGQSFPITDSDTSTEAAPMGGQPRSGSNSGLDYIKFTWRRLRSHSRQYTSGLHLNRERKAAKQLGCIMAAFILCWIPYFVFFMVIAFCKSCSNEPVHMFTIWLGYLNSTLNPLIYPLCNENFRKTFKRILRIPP
# T1 sequence (H0W1Z3 1-590): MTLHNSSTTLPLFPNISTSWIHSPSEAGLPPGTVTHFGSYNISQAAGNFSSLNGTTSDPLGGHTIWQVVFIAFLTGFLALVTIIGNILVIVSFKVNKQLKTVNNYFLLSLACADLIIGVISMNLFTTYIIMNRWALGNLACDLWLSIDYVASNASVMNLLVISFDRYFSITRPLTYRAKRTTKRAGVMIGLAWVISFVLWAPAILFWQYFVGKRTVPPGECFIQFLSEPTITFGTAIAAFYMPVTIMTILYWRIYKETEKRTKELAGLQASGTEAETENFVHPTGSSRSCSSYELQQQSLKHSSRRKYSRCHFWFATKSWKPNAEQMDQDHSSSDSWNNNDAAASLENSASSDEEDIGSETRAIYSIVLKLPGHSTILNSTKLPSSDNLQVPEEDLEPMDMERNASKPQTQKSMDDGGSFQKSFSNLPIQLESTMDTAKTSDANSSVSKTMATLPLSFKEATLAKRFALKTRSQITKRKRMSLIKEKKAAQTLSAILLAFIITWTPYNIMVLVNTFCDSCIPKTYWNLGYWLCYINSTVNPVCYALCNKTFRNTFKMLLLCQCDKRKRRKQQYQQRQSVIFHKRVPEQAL
smiles,measurement,setting,value
"Cn1c(=O)c2c(nc3n(CCCCN4CCN(c5ccccc5F)CC4)ccn23)n(C)c1=O [AZ-853, 8-(4-(4-(2-fluorophenyl)piperazin-1-yl)butyl)-1,3-dimethyl-1H-imidazo[2,1-f]purine-2,4(3H,8H)-dione]",plasma glucose level vs. control,[1],did not influence the plasma glucose level
same,plasma level of total cholesterol vs. control,[1],increased significantly
same,plasma level of triglycerides vs. control,[1],increased significantly
same,effect on body weight,"[2]; mice, repeated i.p. once daily, AZ-853 0.625 mg/kg (from 10th day), AZ-861 1.25 mg/kg (2nd, 3rd, 4th day)",slight but significant increase in body weight
same,body weight Mean,"[2]; day 1, group mean",23.45 g
same,body weight,"[2]; day 1, individual mouse",24.7 g (2×) and 22.9 g and 21.9 g and 25.0 g and 23.8 g and 23.0 g and 21.7 g (2×) and 25.1 g
same,body weight Mean,"[2]; day 2, group mean",23.55 g
same,body weight,"[2]; day 2, individual mouse",24.9 g and 23.5 g and 24.2 g and 22.6 g and 24.5 g and 23.3 g and 22.7 g and 21.2 g and 22.0 g and 26.6 g
same,body weight Mean,"[2]; day 3, group mean",23.90 g
same,body weight,"[2]; day 3, individual mouse",25.0 g (2×) and 24.0 g (3×) and 23.0 g (2×) and 22.0 g (2×) and 27.0 g
same,body weight Mean,"[2]; day 4, group mean",23.70 g
same,body weight,"[2]; day 4, individual mouse",24.0 g (4×) and 25.0 g and 22.0 g (3×) and 23.0 g and 27.0 g
same,body weight Mean,"[2]; day 5, group mean",23.80 g
same,body weight,"[2]; day 5, individual mouse",23.3 g and 23.8 g and 24.9 g and 22.7 g and 24.6 g and 23.7 g and 23.6 g and 22.2 g and 22.8 g and 26.4 g
same,body weight Mean,"[2]; day 6, group mean",23.85 g
same,body weight,"[2]; day 6, individual mouse",24.2 g and 23.2 g and 24.4 g and 22.9 g and 24.7 g and 23.9 g and 23.5 g and 21.9 g and 23.4 g and 26.4 g
same,body weight Mean,"[2]; day 7, group mean",24.10 g
same,body weight,"[2]; day 7, individual mouse",24.0 g (4×) and 25.0 g (2×) and 23.0 g (3×) and 26.0 g
same,body weight Mean,"[2]; day 8, group mean",24.50 g
same,body weight,"[2]; day 8, individual mouse",25.0 g (2×) and 26.0 g (3×) and 23.0 g (3×) and 24.0 g (2×)
same,body weight Mean,"[2]; day 9, group mean",25.00 g
same,body weight,"[2]; day 9, individual mouse",25.0 g (2×) and 26.0 g (2×) and 27.0 g (2×) and 23.0 g (2×) and 24.0 g (2×)
same,body weight Mean,"[2]; day 10, group mean",25.14 g
same,body weight,"[2]; day 10, individual mouse",25.4 g and 24.9 g and 26.7 g and 23.8 g and 25.2 g and 24.3 g and 24.0 g and 23.7 g and 25.7 g and 27.7 g
same,body weight Mean,"[2]; day 11, group mean",24.68 g
same,body weight Mean,"[2]; day 12, group mean",25.52 g
same,body weight Mean,"[2]; day 13, group mean",25.54 g
same,body weight Mean,"[2]; day 14, group mean",25.91 g
same,body weight Mean,"[2]; day 15, group mean",26.09 g
same,inhibition at 1 µM,[3],2.5%
same,inhibition at 1 µM,[4],94.8%
same,reduction of immobility time in FST,[5]; 0.625 mg/kg i.p.,approximately 50%
same,reduction of immobility time in FST,[5]; 1.25 mg/kg i.p.,~58%
same,reduction of immobility time in FST,[5]; 2.5 mg/kg i.p.,~45%
same,effect of WAY-100635 on the antidepressant-like action of the compound in FST,[5]; compound 1.25 mg/kg i.p. + WAY-100635 0.3 mg/kg s.c.,completely abolished
same,effect on immobility time in FST after repeated administration,"[5]; i.p. once daily for 13 consecutive days, AZ-853 0.625 mg/kg, AZ-861 1.25 mg/kg",decreased the immobility time
